Data: article PMC11205194 (Marine Drugs, 2024)

Tested on: SARS-CoV-2 3CLpro
Details: pH 7; for Inhibition of free 3CL protease by synthesized peptides: SD

Row | Compound | Inhibition of free 3CL protease by synthesized peptides [%] | Inhibition of the 3CLpro control's enzymatic activity [%]
1 | VVGVVVY [PEP 1, Val-Val-Gly-Val-Val-Val-Tyr] | 9.3 ± 5.7 | 
2 | COc1cccc2[nH]c(C(=O)N[C@@H](CC(C)C)C(=O)N[C@@H](C[C@@H]3CCNC3=O)C(=O)CO)cc12 [PF-00835231, reference compound] |  | 94.9
3 | EVLEFFKYLE [PEP 7] | 7.6 ± 1.3 | 
4 | EVLEFFKYIE [PEP 5] | 0.01 ± 3.8 | 
